This assay has as its target T1, Human recombinant His-tagged PFKFB3 (Homo sapiens, UniProt Q16875).
T1 construct: His; made in house
The assay can be described thus: PFKFB3 IC50 Determination Assay (in vitro kinase assay, modified ADP-Glo system). The format is biochemical. Particulars: ATP 20 μM and fructose-6-phosphate 2 μM (Km), 25 nM PFKFB3, 2 h, rt, ADP-Glo luminescence. The procedure:
PFKFB3 IC50 Determination Assay
In vitro kinase assay used to determine IC50 values for tested inhibitors is based on a modified ADP-Glo™ system (Promega) and consists of two parts:
1. Kinase reaction—performed in optimized conditions. At this step PFKFB3 phosphorylates its substrate Fructose-6-phosphate using ATP as a source of phosphate to produce Fructose-2,6-bisphosphate and ADP. Reaction is performed at Km values for ATP and substrate using optimized buffer composition and time of the reaction. Human recombinant His-tagged PFKFB3 (PFKFB3 BATCH II SEC) with confirmed activity is produced and purified in-house. 2. Detection of ADP as a product of the reaction using ADP-Glo™ system. This part is conducted by using the commercially available kit ADP-Glo™ Kinase Assay (Promega, cat. No# V9103) according to manufacturer's instruction, modified by 5x dilutions of assay reagents (both ADP-Glo™ Reagent and Kinase Detection Solution).
Test compounds are dissolved in DMSO and then transferred to the V-bottom 96-well plate.
15 μL per well of Mix 1 is transferred to assay wells of 96-well white plate. […] Total reaction volume is 30 μL per well. Samples are tested in duplicates. Final concentration of DMSO in the reaction is 6.7%. Conditions needed for performing PFKFB3 (PFKFB3 BATCH II SEC) in vitro kinase assay are given below:
This protocol is based on Technical Bulletin, ADP-Glo™ Kinase Assay (Promega) and is adapted to 96-well plate containing 30 μL reaction mixture:
30 μL of 5x diluted ADP-Glo™ Reagent is added to each well of 96-well plate containing 30 μL of reaction mixture. The plate is incubated for 90 minutes on a shaker at RT. 60 μL of 5x diluted Kinase Detection Solution is added to each well of 96-well plate containing 60 μL of the solution (ratio of kinase reaction volume to ADP-Glo™ Reagent volume to Kinase Detection Solution volume is maintained at 1:1:2). Plate is incubated for 40 minutes on a shaker at RT, protected from light. Luminescence is measured in the plate reader Synergy 2 (BioTek).
Luminescent readouts for compounds tested in 10 concentrations (routinely from 100 μM to […], […] serial dilutions) in duplicates, as well as for positive control, are first normalized to no-substrate negative control by its subtraction. In the next step, % of normalized positive control is calculated for each data point and plotted against test compound concentration:
% of control percent of positive control normalized to no-substrate negative control Lumcpd luminescence of test compound Lumneg luminescence of no-substrate negative control Lumpos luminescence of positive control
IC50 parameter is determined by the GraphPad Prism 5.0 software [log(inhibitor) vs. response −Variable slope (four parameters)].

T1 sequence (Q16875 whole entry): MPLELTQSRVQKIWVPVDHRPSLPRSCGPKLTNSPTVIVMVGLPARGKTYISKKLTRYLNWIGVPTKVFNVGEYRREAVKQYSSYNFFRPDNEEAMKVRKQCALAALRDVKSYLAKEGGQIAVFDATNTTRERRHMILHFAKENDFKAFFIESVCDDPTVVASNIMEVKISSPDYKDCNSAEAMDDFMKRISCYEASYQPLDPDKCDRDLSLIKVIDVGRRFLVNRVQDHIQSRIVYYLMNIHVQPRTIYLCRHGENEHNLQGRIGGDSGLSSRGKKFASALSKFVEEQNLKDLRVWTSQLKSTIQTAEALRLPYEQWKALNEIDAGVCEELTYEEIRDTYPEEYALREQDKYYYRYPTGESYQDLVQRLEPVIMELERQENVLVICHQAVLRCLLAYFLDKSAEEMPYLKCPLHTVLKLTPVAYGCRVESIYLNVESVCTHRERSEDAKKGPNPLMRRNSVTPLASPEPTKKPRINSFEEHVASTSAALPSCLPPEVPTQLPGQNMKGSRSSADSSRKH

Turning to `CS(=O)(=O)c1ccncc1Nc1cc(-c2cccc(-c3cn[nH]n3)c2)c2nccnc2c1` [Example 48, N-(4-Methanesulfonylpyridin-3-yl)-8-[3-(1H-1,2,3-triazol-4-yl)phenyl]quinoxalin-6-amine], the IC50 is 10000 to 100000 nM.
As for `Cc1cccc(-c2cc(Nc3cnccc3S(C)(=O)=O)cc3nccnc23)c1` [Example 51, N-(4-Methanesulfonylpyridin-3-yl)-8-(3-methylphenyl)quinoxalin-6-amine], the figure is 1000 to 10000 nM.
As for `CNc1ccc(S(C)(=O)=O)c(Nc2cc(-c3ccc4ccn(C)c4c3)c3nccnc3c2)c1` [Example 57, 4-Methanesulfonyl-N1-methyl-N3-[8-(1-methyl-1H-indol-6-yl)quinoxalin-6-yl]benzene-1,3-diamine], the figure is 1 to 1000 nM; as for `CS(=O)(=O)c1ccncc1Nc1cc(-c2ccc3occ(CCl)c3c2)c2nccnc2c1` [Example 58, 8-[3-(Chloromethyl)-1-benzofuran-5-yl]-N-(4-methanesulfonylpyridin-3-yl)quinoxalin-6-amine], 10000 to 100000 nM.
The same measure for `Cn1ccc2ccc(-c3cc(Nc4cnccc4S(C)(=O)=O)cc4nccnc34)c(F)c21` [Example 59, 8-(7-Fluoro-1-methyl-1H-indol-6-yl)-N-(4-methanesulfonylpyridin-3-yl)quinoxalin-6-amine]: 1 to 1000 nM.
As to `CS(=O)(=O)c1ccncc1Nc1cc(-c2ccc3nc[nH]c3c2)c2nccnc2c1` [Example 61, 8-(1H-1,3-Benzodiazol-5-yl)-N-(4-methanesulfonylpyridin-3-yl)quinoxalin-6-amine], the concentration for half-maximal inhibition (IC50) fell in the range of 10000 to 100000 nM.
The same measure for `CCc1cccc(-c2cc(Nc3cnccc3S(C)(=O)=O)cc3nccnc23)c1` [Example 65, 8-(3-Ethylphenyl)-N-(4-methanesulfonylpyridin-3-yl)quinoxalin-6-amine]: 1000 to 10000 nM.
The same measure for `Cc1ccc(N)c(-c2cc(Nc3cnccc3S(C)(=O)=O)cc3nccnc23)c1` [Example 66, 8-(2-Amino-5-methylphenyl)-N-(4-methanesulfonylpyridin-3-yl)quinoxalin-6-amine]: 1000 to 10000 nM; for `Cc1ccc(O)c(-c2cc(Nc3cnccc3S(C)(=O)=O)cc3nccnc23)c1` [Example 67, 2-{7-[(4-Methanesulfonylpyridin-3-yl)amino]quinoxalin-5-yl}-4-methylphenol]: 1000 to 10000 nM; for `Cn1ccc2ccc(-c3cc(Nc4cnccc4-c4nn[nH]n4)cc4nccnc34)cc21` [Example 68, 8-(1-Methyl-1H-indol-6-yl)-N-[4-(1H-1,2,3,4-tetrazol-5-yl)pyridin-3-yl]quinoxalin-6-amine]: 1 to 1000 nM.
The same measure for `Cn1ccc2ccc(-c3cc(Nc4cnccc4Cl)cc4nccnc34)cc21` [Example 69, N-(4-Chloropyridin-3-yl)-8-(1-methyl-1H-indol-6-yl)quinoxalin-6-amine]: 1 to 1000 nM; for `Cc1coc2ccc(-c3cc(Nc4c[n+]([O-])ccc4S(C)(=O)=O)cc4nccnc34)cc12` [Example 72, 4-Methanesulfonyl-3-{[8-(3-methyl-1-benzofuran-5-yl)quinoxalin-6-yl]amino}pyridin-1-ium-1-olate]: 1 to 1000 nM; for `Cn1ccc2cc(F)c(-c3cc(Nc4cnccc4S(C)(=O)=O)cc4nccnc34)cc21` [Example 73, 8-(5-Fluoro-1-methyl-1H-indol-6-yl)-N-(4-methanesulfonylpyridin-3-yl)quinoxalin-6-amine]: 1 to 1000 nM.
As to `COc1ccc(C)cc1-c1cc(Nc2cnccc2S(C)(=O)=O)cc2nccnc12` [Example 74, N-(4-Methanesulfonylpyridin-3-yl)-8-(2-methoxy-5-methylphenyl)quinoxalin-6-amine], the IC50 was in the range of 1000 to 10000 nM.
The same measure for `Cc1ccc(-c2cc(Nc3cnccc3S(C)(=O)=O)cc3nccnc23)cc1N` [Example 75, 8-(3-Amino-4-methylphenyl)-N-(4-methanesulfonylpyridin-3-yl)quinoxalin-6-amine]: 1 to 1000 nM.

Values taken from US20180118718A1, “Substituted Quinoxaline Derivatives” (Selvita S.A., priority 2015, published 2018).
